Test results published in US20210393734A1, “THERAPEUTIC AGENT FOR ARTHRITIS” (OSAKA UNIVERSITY, priority 2018, published 2021).
Entries after “also recorded” stand apart in the source; their conditions may differ.

Experiments:
[1] = test system: CX3CR1-positive HLA-DRhi cells from synovial fluid and articulation tissue of a rheumatoid arthritis patient; test: Osteoclast differentiation of CX3CR1-positive HLA-DRhi cells of a rheumatoid arthritis patient; type: cell-based; conditions: human RA patient cells, 50 ng/ml M-CSF, 100 ng/ml RANKL, 0.5 μM thiostrepton, 96-well plate; FIG. 5B
Procedure: The photographs indicate that the osteoclast differentiation is inhibited by thiostrepton administration.
When these cells were collected by flow cytometry and cultured on a 96-well plate with 50 ng/ml M-CSF, 100 ng/ml RANKL, and 0.5 μM thiostrepton added.

[2] = test system: R3 cells (osteoclast precursor cells existing in an inflammatory synovial membrane); test: Suppression of differentiation of R3 cells into osteoclasts (in vitro); type: cell-based, mouse; conditions: 10 ng/ml M-CSF, 100 ng/ml RANKL, 0.5, 1, or 2 μM thiostrepton, 96-well plate, FIG. 2
Source text: FIG. 2 is figures showing the effect of thiostrepton on the osteoclast differentiation of R3s (in vitro). Photographs indicate that osteoclast differentiation is suppressed by thiostrepton administration (reds show osteoclasts, and greens show precursor cells).
A) CD45-positive cells of blood and a synovial membrane of a collagen-induced arthritis model mouse (CIA model) were selected by flow cytometry, and the cell fractions were identified with the fluorescence of CX3CR1-EGFP and Ly6C-APC. A CX3CR1lowLy6Chi fraction in blood was defined as R1, a CX3CR1lowLy6Chi fraction in an inflammatory synovial membrane was defined as R2, and a CX3CR1hiLy6Cint fraction was defined as R3 (FIG. 1A).

[3] = test system: Collagen-induced arthritis (CIA) mice; test: Effect in collagen-induced arthritis (CIA) model mouse (in vivo); design: species or system DBA-1/J mice; conditions: 20 mg/kg or 50 mg/kg intraperitoneally every other day from the twenty-first day, compared with the control group
Procedure: Collagen-induced arthritis (CIA) mice were divided into three groups, and 20 mg/kg or 50 mg/kg of thiostrepton or a base (contrast) was intraperitoneally administered every other day from the twenty-first day. Methods for producing and evaluating CIA mice are as follows.
Arthritis was caused using 8- to 10-week-old DBA-1/J mice. Chicken type II collagen was dissolved in a 0.05 M acetic acid solution and rotated at 4° C. all night to make a solution at a concentration of 4.0 mg/ml, and the solution was mixed with the same volume of Freund's complete adjuvant. On the first day, 100 μl of the emulsion was injected into the tail of each of the above-mentioned DBA-1/J mice for immunization, and the administration was repeated in the same way on the twenty-first day. The severity of arthritis was evaluated in accordance with a semi-quantitative score method which consists of an established 5-point scale. The scale is as follows: 0: no swelling, 1: slight swelling only in the heel or the tarsal bones, 2: slight swelling from the heel to the tarsal bones, 3: considerable swelling from the heel to the metatarsal articulation, and 4: severe swelling spreading over an area including the heel, the foot, and the toes. […]
Image analysis using micro-CT was performed. The osteoclastic score was determined with reference to previous study (refer to O'Brien, Arthritis Rheumatol. 2016).

SMILES: C=C(NC(=O)C(=C)NC(=O)c1csc(C2=N[C@@H]3c4csc(n4)[C@H]4NC(=O)c5csc(n5)[C@H]([C@](C)(O)[C@@H](C)O)NC(=O)[C@H]5CSC(=N5)/C(=C/C)NC(=O)[C@H]([C@@H](C)O)NC(=O)c5csc(n5)[C@]3(CC2)NC(=O)[C@H](C)NC(=O)C(=C)NC(=O)[C@H](C)NC(=O)[C@H]([C@@H](C)CC)N[C@@H]2C=Cc3c([C@H](C)O)cc(nc3[C@H]2O)C(=O)O[C@@H]4C)n1)C(N)=O [thiostrepton]
- differentiation into osteoclasts (number of nuclei contained in osteoclasts in one visual field) [1]: inhibited; also recorded: significantly suppressed
- capability to differentiate into osteoclasts (number of nuclei contained in osteoclasts in one visual field) [2]: remarkably suppressed
- arthritis score ([3]; FIG. 3A): decreased significantly
- osteoclastic score imaged by micro-CT (erosion score) ([3]; FIG. 3B): decreased significantly
